Results published in patent publication US20050256085A1, “Fungicidal mixtures” (priority 2002, published 2005).
Like-named read-outs stand apart in the source and are kept apart here.

What was measured:
Plasmopara viticola = experiment: Persistency against Peronospora of grapevines caused by Plasmopara viticola; format: in vivo; details: grapevine leaves, inoculated 3 days after spraying
Phytophthora infestans = format: in vivo; details: tomato leaves, infected next day, assessed after 6 days

Row | Structure (SMILES) | Efficacy in % of the untreated control (Plasmopara viticola; 1.9 ppm in the spray liquor) [%] | Efficacy in % of the untreated control (Plasmopara viticola; 3.75 ppm in the spray liquor) [%] | Efficacy in % of the untreated control (Phytophthora infestans; 1.9 ppm in the spray liquor) [%] | Efficacy in % of the untreated control (Phytophthora infestans; 3.75 ppm in the spray liquor) [%] | Efficacy in % of the untreated control (Phytophthora infestans; 7.5 ppm in the spray liquor) [%] | Efficacy in % of the untreated control (Plasmopara viticola; 0.19 ppm in the spray liquor) [%] | Efficacy in % of the untreated control (Plasmopara viticola; 0.375 ppm in the spray liquor) [%] | Efficacy in % of the untreated control (Plasmopara viticola; 1.5 ppm in the spray liquor) [%] | Efficacy in % of the untreated control (Plasmopara viticola; 3 ppm in the spray liquor) [%] | Efficacy in % of the untreated control (Phytophthora infestans; 0.19 ppm in the spray liquor) [%] | Efficacy in % of the untreated control (Phytophthora infestans; 0.375 ppm in the spray liquor) [%] | Efficacy in % of the untreated control (Phytophthora infestans; 0.75 ppm in the spray liquor) [%] | Efficacy in % of the untreated control (Phytophthora infestans; 1.5 ppm in the spray liquor) [%] | Efficacy in % of the untreated control (Phytophthora infestans; 3 ppm in the spray liquor) [%]
1 | N#Cc1sc2c(=O)c3ccccc3c(=O)c=2sc1C#N [II, dithianon] | 48 | 58 | 0 | 0 | 0 | – | – | – | – | – | – | – | – | –
2 | CC(C)OC(=O)N[C@H](C(=O)N[C@H](C)c1nc2ccc(F)cc2s1)C(C)C [Ia] | – | – | – | – | – | 48 | 58 | 79 | 84 | 56 | 67 | 78 | 83 | 89
